{"source": "patent US20220411448A1", "about": "“CHROMENE-4-ONE DERIVATIVES AS BRAIN-DERIVED NEUROTROPHIC FACTOR (BDNF) MIMETICS” (FLORATEK PHARMA AG, priority 2019, published 2022)", "key": {"[1]": {"system": "primary cultures of cerebral cortical astrocytes", "test": "Lactate release assay in astrocyte cultures", "type": "cell-based, mouse", "conditions": "various concentrations, 30 minutes after application", "procedure": "Primary cultures of cerebral cortical astrocytes were prepared from Swiss albino newborn mice (1-2 days old) as described [Pellerin L, Magistretti P J. Glutamate uptake into astrocytes stimulates aerobic glycolysis: a mechanism coupling neuronal activity to glucose utilization. Proc Natl Acad Sci USA. 1994 Oct. 25; 91(22):10625-9]. This procedure yields cultures that are >95% immunoreactive for glial fibrillary acidic protein.\nAstrocytes are emerging as having significant roles in several homeostatic processes in the brain [Zuchero J B, Barres B A. Glia in mammalian development and disease. Development 2015 142: 3805-3809]. To evaluate the potential effects of Compound A (10 μM) on astrocyte metabolism, the uptake of glucose and lactate release were measured 30 minutes after application of compounds to the culture (FIGS. 2 and 3).\nLactate release into the medium was measured enzymatically by a modification of the enzymatic spectrophotometric method of Rosenberg and Rush [Rosenberg J C, Rush B F. An enzymatic-spectrophotometric determination of pyruvic and lactic acid in blood. Methodologic aspects. Clin Chem. 1966; 12(5):299-307.]. Incubations were carried out exactly as described for [3H]2DG uptake experiments except for the fact that no tracer and no phenol red (which otherwise interferes with the spectrophotometric determination of lactate) were present in the incubation medium. […]"}, "[2]": {"system": "organotypic hippocampal brain slices with IAA lesion", "test": "Organotypic brain slices, iodoacetic acid injury: mitochondrial membrane potential (TMRM)", "type": "cell-based, mouse", "conditions": "SND118 10 and 30 μM; SND124 30 μM; IAA 250 μM for 110 min", "procedure": "Preparation of the organotypic brain slices were performed by decapitation of the P9/P10 mouse pups, removing skin and skull and immersing brains in slicing medium (Opti-MEM 1, […]). Brains were hemisected and hippocampi were isolated. Hippocampi were placed on the cutting disc of a McIlwain Tissue Chopper. […] hippocampal slices were chopped transversely. A number of 4 slices per hippocampus were placed on porous (0.4 μM) transparent membrane inserts (Millipore) and incubated for 1 h on ice in HBSS containing 10 mM glucose. Afterwards inserts were transferred to fresh 24-well plates containing 250-300 μl culture medium (50% MEM/EBSS, 25% horse serum, 25% CMF-HBSS, 25 mM glucose, 0.5% pen/strep). Slices were maintained at 37° C. and 5% CO2.\nOn DV15, brain slices were pretreated with SND derivatives test compounds and the reference 7,8DHF at various concentrations (between […]) for 30 min, followed by the addition of iodoacetic acid (IAA) at 250 μM for 110 min, when cell survival, MMP and toxicity were measured.\nCell survival was measured by the MTT assay. […] Fluorescence was measured with a plate-reader (Cytation 5) using wavelengths of excitation and emission of 548 and 574 nm, respectively (area scan). Values were calculated as percent of control values (vehicle control). Toxicity of the treatment was measured by LDH. […]"}, "[3]": {"system": "cortical neurons with MPP+ lesion", "test": "MPP+ induced ROS in cortical neurons (DCFDA)", "type": "cell-based, mouse", "conditions": "0.5 and 1 μM, 8 h MPP+ lesion", "procedure": "Mouse cortical neurons were prepared as described. At DIV8 cells were treated with the test and control MK801 compounds for 1 h, before the addition of MPP+(Sigma, D048) at a final concentration of 100-200 μM. The experiment was carried out with n=6 technical replicates per condition, vehicle and MPP+ alone controls were included. After 8 h determination of ROS was conducted and after 24 h of MPP+ lesion on DIV9 cells were subject to the apoptosis measurement. Apoptosis was determined using YO-PRO™-1 Iodide (Invitrogen; Y3603). Part of supernatant of the cultivated cells was removed and 10 μL of a 50 μM YO-PRO 1 solution in PBS is added to the remaining 90 μL to result in a final concentration of 5 μM YO-PRO 1 in well. Incubation for 15 min in the incubator at 37° C. was performed (light protected) followed by discarding the supernatant. 140 μL PBS was added to each well and the fluorescence was measured using a plate-reader (Cytation 5, BioTek) at excitation wavelength 485 nm to Emission wavelength 535 nm.\nROS generation was measured with Abcam's DCFDA-Cellular Reactive Oxygen Species Detection Assay (ab 113851). […] Cells were then incubated with the test items and lesion for 8 h and thereafter the fluorescent signal was measured at 485 nm/535 nm (Cytation 5, BioTek)."}, "[4]": {"test": "Metabolic stability in mouse plasma", "type": "in vitro ADME, CD1-mouse", "conditions": "1 μM", "procedure": "The compounds were incubated with plasma, and the collected samples were analyzed by UPLC/HR-MS to measure stability of the compounds.\nSample type: plasma; Species: CD1-mouse (male), human (mixed gender); Time points: 0, 20, 40, 60, 120 min;\nSpiking solvent: 50% DMSO ( 1/100 to incubation); Quenching solvent: 2-fold volume of 100% ACN; Control: propanthelin bromide (human, mouse)\nThe study compounds were incubated with plasma as specified above. The collected samples were stored at −20 C until thawed at room temperature, centrifuged and analyzed using UPLC/PDA with high resolution mass spectrometry (QE-Orbitrap-MS on DDI mode) to monitor substrate depletion and metabolite formation. The analytical method was optimised by using the parent compounds for optimum chromatographic properties (peak shape and retention) and mass spectrometric ionisation. Disappearance was based on relative LC/MS peak areas (0 min=100%) and will be used to calculate half-lives."}}}
{"smiles": "O=c1cc(-c2ccc(CCCC[P+](c3ccccc3)(c3ccccc3)c3ccccc3)cc2)oc2c(O)c(O)ccc12", "note": "[SND118, 4-[4-(7,8-dihydroxy-4-oxo-chromen-2-yl)phenyl]butyltriphenylphosphonium bromide]", "values": [{"measurement": "release of L-lactate", "setting": "[1]", "value": "increased the release of L-lactate"}, {"measurement": "mitochondria function (MMP, TMRM) after IAA lesion", "setting": "[2]", "value": "rescued mitochondria function"}, {"measurement": "level of ROS induced by MPP+ (DCFDA)", "setting": "[3]", "value": "decreased the level of ROS"}, {"measurement": "T1/2 plasma Mouse", "setting": "[4]", "value": 13.2, "unit": "h"}]}
